These substances were tested on splenocytes of WT-vaccinated HLA-A2 tg mice. Details: not given.
Format: cell-based, mouse
Set-up: key to response compared with WT peptide control, mouse splenocytes: *: Lower response than WT peptide

Row | Substance | Mouse splenocytes (ex vivo assay), Average | rank by T cell activation, mouse splenocytes | response compared with WT peptide control, mouse splenocytes
1 | F[2-AOC]YSDFHFI [F143] | 92 | Upper 3 | F143 ^*

Each substance was assayed against T1, HLA-A*0201 (Homo sapiens, UniProt P04439, D140Y/D185E/D98H/E176V/E277Q/G131W/G231S/I119V/I121R/I166T/I218V/L300P/L318F/N151K/N90K/P208A/P217A/Q86G/Q94H/R138H/R169H/T345S). Details: not given.
T1 construct: Soluble MHC was dissolved in PBS containing 0.5 mg/ml bovine γ-globulin; made in house
Format: binding

Row | Substance | FP binding score, percentage inhibition of tracer peptide binding, 4h | FP binding score, percentage inhibition of tracer peptide binding, 24h
2 | F[2-AOC]YSDFHFI [F143] | 93% | 91%

What follows are substances tested against T2, HLA-A*0301 (Homo sapiens, UniProt P04439). Details: not given.
T2 construct: Soluble MHC was dissolved in PBS containing 0.5 mg/ml bovine γ-globulin; made in house
Format: binding

Row | Substance | FP binding score, percentage inhibition of tracer peptide binding, 4h | FP binding score, percentage inhibition of tracer peptide binding, 24h
3 | I[AHA][4-FPHE]GSVAHK [I87] | 73% | 91%
4 | S[NVA]SFGGF[TOME]K [S92] | 80% | 92%
5 | RMVLSAF[AHA]ER [R81] | 71% | 76%
6 | ILRGSVAHK [I WT, reference compound] | 66% | 87%
7 | S[NVA]SFGG[BPG]TK [S73] | 73% | 91%
8 | RMVLSAF[CpALA]ER [R42] | 65% | 73%
9 | S[NVA][NLE]FGGFTK [S94] | 80% | 93%
10 | S[NVA]SFGG[PRG]TK [S71] | 70% | 90%
11 | S[NVA]SFGGF[AHA]K [S90] | 78% | 90%
12 | I[AHA][2-AOC]GSVAHK [I59] | 71% | 91%
13 | RM[OrnN2]LSAFDER [R83] | 71% | 72%
14 | I[AHA]RGSV[CSET]HK [I73] | 74% | 90%
15 | I[AHA][PRG]GSVAHK [I84] | 71% | 89%
16 | IL[4-FPHE]GSVAHK [I94] | 70% | 89%
17 | R[NVA]VLSAFDKR [R59] | 62% | 68%
18 | S[NVA]SFGG[NVA]TK [S69] | 72% | 91%
19 | RMVLSAF[CSET]ER [R37] | 60% | 60%
20 | R[AHA]VLSAFDEK [R2] | 58% | 67%
21 | RMVLSAF[PRG]ER [R39] | 62% | 62%
22 | RM[2-AOC]LSAFDER [R50] | 70% | 66%
23 | RMVLSAF[2-AOC]ER [R38] | 69% | 75%

Row | Substance | FP binding score, percentage inhibition of tracer peptide binding, 4h | FP binding score, percentage inhibition of tracer peptide binding, 24h
24 | RMVLSAF[ORN]ER [R41] | 65% | 63%
25 | R[AHA]VLSAF[4-FPHE]ER [R68] | 67% | 64%
26 | I[AHA]RGSV[NLE]HK [I74] | 77% | 92%
27 | RMVLSAFDEK [R4] | 61% | 69%
28 | R[NVA]VLSAF[4-FPHE]ER [R72] | 68% | 72%
29 | S[NVA][2-AOC]FGGFTK [S50] | 83% | 94%
30 | RM[4-FPHE]LSAFDER [R55] | 70% | 65%
31 | S[NVA][AHA]FGGFTK [S52] | 80% | 93%
32 | [2-AOC][NLE]RGSVAHK [I60] | 72% | 91%
33 | R[NVA]VLSAF[SOME]ER [R70] | 64% | 74%
34 | S[NVA][CSME]FGGFTK [S93] | 80% | 93%
35 | I[AHA][CHA]GSVAHK [I89] | 75% | 91%
36 | [AHA][NLE]RGSVAHK [I53] | 73% | 91%
37 | R[AHA]VLSAF[SOME]ER [R66] | 63% | 63%
38 | SF[4-FPHE]FGGFTK [S84] | 82% | 95%
39 | I[AHA]RGSV[2-FUR]HK [I79] | 77% | 90%
40 | [CSME][AHA]RGSVAHK [I61] | 71% | 90%
41 | ILRGSV[NLE]HK [I63] | 74% | 89%
42 | I[AHA][NLE]GSVAHK [I58] | 68% | 89%
43 | R[AHA]VLSAF[2-AOC]ER [R67] | 74% | 78%
44 | RMVLSAF[4-FPHE]ER [R40] | 63% | 57%

Row | Substance | FP binding score, percentage inhibition of tracer peptide binding, 4h | FP binding score, percentage inhibition of tracer peptide binding, 24h
45 | S[NVA]SFGG[NLE]TK [S68] | 79% | 93%
46 | S[AHA]RFGGFTK [S54] | 80% | 92%
47 | S[NVA]SFGG[4-FPHE]TK [S72] | 79% | 93%
48 | S[NVA]SFGG[CpALA]TK [S74] | 78% | 94%
49 | S[NVA]SFGG[2-FUR]TK [S76] | 75% | 91%
50 | RMVLSAFDER [R WT, reference compound] | 18% | 6%
51 | S[NVA][CpALA]FGGFTK [S96] | 76% | 91%
52 | R[NVA]VLSAF[2-AOC]ER [R71] | 71% | 82%
53 | S[NVA]SFGGFHK [S56] | 78% | 91%
54 | [2-AOC][AHA]RGSVAHK [I17] | 61% | 89%
55 | I[AHA][CSME]GSVAHK [I86] | 71% | 89%
56 | S[NVA]RFGGFTK [S53] | 80% | 93%
57 | I[AHA][CpALA]GSVAHK [I83] | 70% | 89%
58 | I[AHA][SOME]GSVAHK [I85] | 69% | 88%
59 | SFSFGGFTK [S WT, reference compound] | 67% | 58%
60 | S[NVA]SFGG[2-AOC]TK [S70] | 90% | 96%
61 | S[NVA][4-FPHE]FGGFTK [S95] | 80% | 93%
62 | ILRGSV[2-AOC]HK [I65] | 87% | 94%
63 | RMVLSAF[NLE]ER [R36] | 66% | 73%
64 | I[OrnN2]RGSVAHK [I49] | 71% | 90%
65 | I[AHA]RGSV[CpALA]HK [I77] | 71% | 89%

Same assay, conditions: after 4h

Row | Substance | FP binding score HLA-A*0301, percentage inhibition, 4h
66 | RMVLSAF[CSET]ER [R37] | 60%
67 | RMVLSAF[PRG]ER [R39] | 62%
68 | R[AHA]VLSAF[SOME]ER [R66] | 63%

Same assay, conditions: after 24h

Row | Substance | FP binding score HLA-A*0301, percentage inhibition, 24h
69 | RMVLSAF[CSET]ER [R37] | 60%
70 | RMVLSAF[PRG]ER [R39] | 62%
71 | R[AHA]VLSAF[SOME]ER [R66] | 63%

Reference: article PMC4917206, “Chemical Modification of Influenza CD8+ T-Cell Epitopes Enhances Their Immunogenicity Regardless of Immunodominance” (PLoS ONE, 2016)
